Values after ≈ are worked out from the molar mass of the structure shown. Read-outs that look alike come from different tables or passages of the source.
Key:
E. cloacae IPM-12 = experiment: In vitro antibacterial MIC; type: cell-based; details: Enterobacter cloacae, IPM12, 18 h, pH 7
Procedure: (§1) The minimum inhibitory concentration (MIC) was determined by a two-fold serial tube dilution method using nutrient agar (pH7, Difco containing 10^5 cfu/ml).

E. coli 255 = experiment: In vitro antibacterial MIC; type: cell-based; details: Escherichia coli, 255, 18 h, pH 7
Procedure: as §1

E. coli Juhl A15119 = experiment: In vitro antibacterial MIC; type: cell-based; details: Escherichia coli, JUHLA15119, 18 h, pH 7
Procedure: as §1

E. faecalis A9808 = experiment: In vitro antibacterial MIC; type: cell-based; details: Enterococcus faecalis, A9808, 18 h, pH 7
Procedure: as §1

E. faecium A24817 = experiment: In vitro antibacterial MIC; type: cell-based; details: Enterococcus faecium, pH 7, nutrient agar pH7, 32° C., 18 hours
Procedure: as §1

K. pneumoniae PCI 602 = experiment: In vitro antibacterial MIC; type: cell-based; details: Klebsiella pneumoniae, PCI602, 18 h, pH 7
Procedure: as §1

M. luteus PCI 1001 = experiment: In vitro antibacterial MIC; type: cell-based; details: Micrococcus luteus, PCI1001, pH 7, nutrient agar pH7, 32° C., 18 hours
Procedure: as §1

M. morganii I510 = experiment: In vitro antibacterial MIC; type: cell-based; details: Morganella morganii, I510, 18 h, pH 7
Procedure: as §1

P. aeruginosa A20599 = experiment: In vitro antibacterial MIC; type: cell-based; details: Pseudomonas aeruginosa, A20599, 18 h, pH 7
Procedure: as §1

P. aeruginosa A9843A = experiment: In vitro antibacterial MIC; type: cell-based; details: Pseudomonas aeruginosa, 18 h, pH 7
Procedure: as §1

P. aeruginosa IPM-8 = experiment: In vitro antibacterial MIC; type: cell-based; details: Pseudomonas aeruginosa, IPM8, 18 h, pH 7
Procedure: as §1

P. aeruginosa IPM-9 = experiment: In vitro antibacterial MIC; type: cell-based; details: Pseudomonas aeruginosa, IPM9, 18 h, pH 7
Procedure: as §1

P. aeruginosa KKA19 = experiment: In vitro antibacterial MIC; type: cell-based; details: Pseudomonas aeruginosa, pH 7, nutrient agar pH7, 32° C., 18 hours
Procedure: as §1

P. cepecia A21213 = experiment: In vitro antibacterial MIC; type: cell-based; details: 18 h, pH 7
Procedure: as §1

P. cepecia No. 651 = experiment: In vitro antibacterial MIC; type: cell-based; details: 18 h, pH 7
Procedure: as §1

P. mirabilis IFO 3849 = experiment: In vitro antibacterial MIC; type: cell-based; details: Proteus mirabilis, IFO3849, 18 h, pH 7
Procedure: as §1

P. rettgeri IPM-14 = experiment: In vitro antibacterial MIC; type: cell-based; details: Providencia rettgeri, IPM14, 18 h, pH 7
Procedure: as §1

P. vulgaris IPM-13 = experiment: In vitro antibacterial MIC; type: cell-based; details: Proteus vulgaris, IPM13, 18 h, pH 7
Procedure: as §1

S. aureus A15036 (MRSA) = experiment: In vitro antibacterial MIC; type: cell-based; details: Staphylococcus aureus, 18 h, pH 7
Procedure: as §1

S. aureus IPM-24 (MRSA) = experiment: In vitro antibacterial MIC; type: cell-based; details: Staphylococcus aureus, 18 h, pH 7
Procedure: as §1

S. aureus smith = experiment: In vitro antibacterial MIC; type: cell-based; details: Staphylococcus aureus, 18 h, pH 7
Procedure: as §1

S. epidermidis 11-1230 = experiment: In vitro antibacterial MIC; type: cell-based; details: Staphylococcus epidermidis, 111230, 18 h, pH 7
Procedure: as §1

S. marcescens IPM-15 = experiment: In vitro antibacterial MIC; type: cell-based; details: Serratia marcescens, IPM15, 18 h, pH 7
Procedure: as §1

S. marcescens IPM-16 = experiment: In vitro antibacterial MIC; type: cell-based; details: Serratia marcescens, IPM16, 18 h, pH 7
Procedure: as §1

X. maltophilia GN12873 = experiment: In vitro antibacterial MIC; type: cell-based; details: Stenotrophomonas maltophilia, pH 7, nutrient agar pH7, 32° C., 18 hours
Procedure: as §1

X. maltophilia No. 661 = experiment: In vitro antibacterial MIC; type: cell-based; details: Stenotrophomonas maltophilia, pH 7, nutrient agar pH7, 32° C., 18 hours
Procedure: as §1

[1] = system: Candida albicans ATCC 38247; experiment: In vitro antifungal MIC; type: cell-based
Procedure: (§2) The antifungal MICs of dynemicin C and its triacetate were determined by an agar dilution method on yeast morphology agar adjusted to pH7.0 with 1/15M phosphate buffer. A 5 μl aliquot of fungal suspension containing 10^6 cells/ml was inoculated onto the surface of the antibiotic-containing agar plates with a multiinoculator.

[2] = system: Cryptococcus neoformans D49; experiment: In vitro antifungal MIC; type: cell-based; details: for MIC: pH 7
Procedure: as §2

C. neoformans IAM4514 = experiment: In vitro antifungal MIC; type: cell-based, Cryptococcus neoformans
Procedure: as §2

[3] = system: B16-F10 (murine melanoma) cells; experiment: In vitro cytotoxicity; type: cell-based; details: Mus musculus, 72 hours, 37° C., neutral red, 540 nm
Procedure: (§3) Dynemicin C and its triacetate derivative were tested for in vitro cytotoxicity against murine and human tumor cell lines. Dynemicin A and its triacetate derivative were used as reference compounds. B16-F10 (murine melanoma) cells were grown to the logarithmic phase in enriched Eagle minimum essential medium (MEM) supplemented with fetal calf serum (FCS, 10%) and kanamycin (60 mcg/ml) and HCT-116 (human colon carcinoma) cells in Maccoy's 5A medium supplemented with FCS (10%), penicillin (100 μ/ml) and streptomycin (100 mcg/ml), and were harvested and inoculated into wells of the 96- or 24-well tissue culture plate with test materials at concentrations of 1.5×10^4, 1.3×10^4, 1.3×10^4, 2.5×10^4 and 3.0×10^4 cells/ml., respectively. They were incubated at 37° C. in a humidified atmosphere of 5% CO2 and 95% air for 72 hours. The cytotoxic activities were determined colorimetrically at 540 nm after staining viable cells with 0.006% neutral red solution.

[4] = system: HCT-116 (human colon carcinoma) cells; experiment: In vitro cytotoxicity; type: cell-based; details: 72 hours, 37° C., neutral red, 540 nm
Procedure: as §3

gram-positive organisms = experiment: In vitro antibacterial activity, gram-positive organisms as a group; type: cell-based
Procedure: as §1

gram-negative organisms = experiment: In vitro antibacterial activity, gram-negative organisms as a group; type: cell-based; details: 18 h, read-out: MIC (range)
Procedure: as §1

Solubility = type: physicochemical; details: solvent not stated
[5] = Candida albicans, ATCC38247, 40 h, pH 7
[6] = Cryptococcus neoformans, D49, 40 h

Row | SMILES | MIC (E. cloacae IPM-12) [ng/mL] | MIC (E. coli 255) [ng/mL] | MIC (E. coli Juhl A15119) [ng/mL] | MIC (E. faecalis A9808) [ng/mL] | MIC (E. faecium A24817) [ng/mL] | MIC (K. pneumoniae PCI 602) [ng/mL] | MIC (M. luteus PCI 1001) [ng/mL] | MIC (M. morganii I510) [ng/mL] | MIC (P. aeruginosa A20599) [ng/mL] | MIC (P. aeruginosa A9843A) [ng/mL] | MIC (P. aeruginosa IPM-8) [ng/mL] | MIC (P. aeruginosa IPM-9) [ng/mL] | MIC (P. aeruginosa KKA19) [ng/mL] | MIC (P. cepecia A21213) [ng/mL] | MIC (P. cepecia No. 651) [ng/mL] | MIC (P. mirabilis IFO 3849) [ng/mL] | MIC (P. rettgeri IPM-14) [ng/mL] | MIC (P. vulgaris IPM-13) [ng/mL] | MIC (S. aureus A15036 (MRSA)) [ng/mL] | MIC (S. aureus IPM-24 (MRSA)) [ng/mL] | also measured
1 | COC1=C(C(=O)O)C(C)C23OC24c2cc(O)c5c(c2NC3C#CC=CC#CC14)C(=O)c1c(O)ccc(O)c1C5=O (centres unmarked) [Dynemicin A, reference compound] | 1.6 (≈ 2.98 nM) | 3.2 (≈ 5.95 nM) | 3.2 (≈ 5.95 nM) | < 0.025 | < 0.025 | 3.2 (≈ 5.95 nM) | < 0.025 | 0.8 (≈ 1.49 nM) | 3.2 (≈ 5.95 nM) | 1.6 (≈ 2.98 nM) | 3.2 (≈ 5.95 nM) | 6.3 (≈ 11.7 nM) | 3.2 (≈ 5.95 nM) | 0.8 (≈ 1.49 nM) | 0.8 (≈ 1.49 nM) | 1.6 (≈ 2.98 nM) | 0.8 (≈ 1.49 nM) | 0.8 (≈ 1.49 nM) | < 0.025 | < 0.025 | MIC (S. aureus smith): < 0.025 ng/mL; MIC (S. epidermidis 11-1230): < 0.025 ng/mL; MIC (S. marcescens IPM-15): 3.2 ng/mL (≈ 5.95 nM); MIC (S. marcescens IPM-16): 3.2 ng/mL (≈ 5.95 nM); MIC (X. maltophilia GN12873): 1.6 ng/mL (≈ 2.98 nM); MIC (X. maltophilia No. 661): 0.8 ng/mL (≈ 1.49 nM); MIC [1, 5]: < 3.1 ng/mL; MIC [2, 6]: 200 ng/mL (≈ 372 nM); MIC (C. neoformans IAM4514; Cryptococcus neoformans, IAM4514, 40 h, pH 7): 200 ng/mL (≈ 372 nM); IC50 [3]: 5.2 ng/mL (≈ 9.67 nM); IC50 [4]: 3.2 ng/mL (≈ 5.95 nM)
2 | COC1=C(C=O)C(C)C23OC24c2cc(OC(C)=O)c5c(c2NC3C#CC=CC#CC14)C(=O)c1c(OC(C)=O)ccc(OC(C)=O)c1C5=O (centres unmarked) [Dynemicin C triacetate] | 800 | 400 | 400 | 6.3 | 6.3 | 200 | 3.1 | 50 | 400 | 200 | 400 | 6300 | 400 | 200 | 200 | 200 | 100 | 100 | 0.4 | 0.4 | MIC (S. aureus smith): 0.8 ng/mL; MIC (S. epidermidis 11-1230): 0.8 ng/mL; MIC (S. marcescens IPM-15): 800 ng/mL; MIC (S. marcescens IPM-16): 400 ng/mL; MIC (X. maltophilia GN12873): 800 ng/mL; MIC (X. maltophilia No. 661): 200 ng/mL; activity compared with ketoconazole ([1]; Candida albicans ATCC 38247, amphotericin resistant, in words): stronger than that of ketoconazole; MIC [1, 5]: 400 ng/mL; activity (compared with amphotericin B and ketoconazole) ([2]; Cryptococcus neoformans D49, in words): inactive; MIC [2, 6]: > 100000 ng/mL; activity (compared with amphotericin B and ketoconazole) (C. neoformans IAM4514; C. neoformans IAM4514, in words): inactive; IC50 [3]: 0.74 ng/mL; IC50 [4]: 2.8 ng/mL; activity against gram-positive organisms compared with amikacin (gram-positive organisms; comparison in words): much better activities against these organisms than amikacin; activity against gram-positive organisms (gram-positive organisms; in words): strong activity; MIC (gram-negative organisms): 50 to 800 ng/mL; solubility relative to dynemicin C (Solubility): increased solubility relative to dynemicin C
3 | CC(=O)N1CCN(c2ccc(OCC3COC(Cn4ccnc4)(c4ccc(Cl)cc4Cl)O3)cc2)CC1 (centres unmarked) [Ketoconazole, reference compound] |  |  |  |  |  |  |  |  |  |  |  |  |  |  |  |  |  |  |  |  | MIC ([1]; ATCC38247, pH 7, Candida albicans ATCC 38247, amphotericin resistant strain, yeast morphology agar pH7.0, 28° C., 40 hours, read-out: MIC): 6300 ng/mL (≈ 11900 nM); MIC ([2]; Cryptococcus neoformans D49, yeast morphology agar pH7.0, 28° C., 40 hours, read-out: MIC): 100 ng/mL (≈ 188 nM); MIC (C. neoformans IAM4514; IAM4514, pH 7, Cryptococcus neoformans IAM 4514, yeast morphology agar pH7.0, 28° C., 40 hours, read-out: MIC): 100 ng/mL (≈ 188 nM)

From US5162330A, “Dynemicin C antibiotic, its triacetyl derivative and pharmaceutical composition containing same” (Bristol-Myers Squibb Co., priority 1990, dated 1992)
